Assay results: ChEMBL document CHEMBL1201862, “PubChem BioAssay data set” (2004)
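Where inhibition never reached the appropriate level, the endpoint shown equals the highest concentration tested. Otherwise, values were interpolated linearly from a five-concentration, 48-hour dose response in 96-well plates. Here, GI50 denotes the concentration required for 50% inhibition of growth.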 Active and inactive are the calls of the source. Cut-off read from the data, not from the text of the source: active = GI50 up to about 1.1 µM and inactive = higher.

What was measured:
Test in all cases: DTP human tumour cell line panel, 48 h
IGROV-1 = system: IGROV-1
SF-539 = system: SF-539
HT-29 = system: HT-29
RPMI-8226 = system: RPMI-8226
SK-MEL-5 = system: SK-MEL-5
SNB-19 = system: SNB-19
UACC-62 = system: UACC-62
U-251 = system: U-251
SK-MEL-28 = system: SK-MEL-28
T47D = system: T47D
OVCAR-4 = system: OVCAR-4
K562 = system: K562
OVCAR-5 = system: OVCAR-5
A498 = system: A498
KM12 = system: KM12
Malme-3M = system: Malme-3M
SNB-75 = system: SNB-75
MDA-N = system: MDA-N
TK-10 = system: TK-10
HL-60 = system: HL-60

Measured: GI50

Cc1ccc(S(=O)(=O)NCCCCC(N)C(=O)O)cc1 (stereo not drawn)
inactive: IGROV-1 > 100 µM | SF-539 > 100 µM | HT-29 > 100 µM | RPMI-8226 > 100 µM | SK-MEL-5 > 100 µM | SNB-19 > 100 µM | UACC-62 > 100 µM | U-251 > 100 µM | SK-MEL-28 > 100 µM | T47D > 100 µM | OVCAR-4 > 100 µM | K562 > 100 µM | OVCAR-5 > 100 µM | A498 > 100 µM | KM12 > 100 µM | Malme-3M > 100 µM | SNB-75 > 100 µM | MDA-N > 100 µM

COc1cccc(C(=O)Nc2c3ccccc3nc3ccccc23)c1OC
inactive: IGROV-1 > 100 µM | SF-539 > 100 µM | HT-29 > 100 µM | RPMI-8226 > 100 µM | TK-10 > 100 µM | SK-MEL-5 29.2 µM | SNB-19 62.2 µM | UACC-62 > 100 µM | U-251 > 100 µM | SK-MEL-28 > 100 µM | T47D > 100 µM | HL-60 > 100 µM | OVCAR-4 > 100 µM | K562 > 100 µM | OVCAR-5 > 100 µM | KM12 > 100 µM | Malme-3M > 100 µM | SNB-75 17.5 µM | MDA-N > 100 µM

N#CCCC1(CCC#N)CCCCCCCCC(CCC#N)(CCC#N)C(=O)C1=O
inactive: SF-539 44.6 µM | HT-29 > 100 µM | TK-10 > 100 µM | SNB-19 > 100 µM | UACC-62 > 100 µM | U-251 > 100 µM | SK-MEL-28 > 100 µM | T47D 36.6 µM | HL-60 > 100 µM | OVCAR-4 > 100 µM | K562 83.9 µM | OVCAR-5 > 100 µM | KM12 > 100 µM | Malme-3M > 100 µM | SNB-75 63.8 µM | MDA-N > 100 µM

Cc1ccc(C)n2c1nc1cc3ccccc3cc12
inactive: IGROV-1 23.1 µM | SF-539 30.7 µM | RPMI-8226 42.5 µM | TK-10 15.5 µM | SK-MEL-5 17.1 µM | SNB-19 24.4 µM | UACC-62 18.8 µM | U-251 30.4 µM | SK-MEL-28 45 µM | T47D 11.1 µM | HL-60 53.8 µM | K562 47.2 µM | OVCAR-5 74.3 µM | KM12 21.1 µM | Malme-3M 50.1 µM | SNB-75 17 µM | MDA-N 38.6 µM

O=C(Cc1cccs1)N[C@@H]1C(=O)N2C(C(=O)OC(c3ccccc3)c3ccccc3)=C(CO)CS[C@H]12
inactive: IGROV-1 29.9 µM | SF-539 > 100 µM | RPMI-8226 96.2 µM | TK-10 > 100 µM | SK-MEL-5 > 100 µM | UACC-62 > 100 µM | U-251 > 100 µM | HL-60 46.6 µM | OVCAR-4 74.3 µM | K562 > 100 µM | OVCAR-5 > 100 µM | A498 > 100 µM | KM12 38.1 µM | Malme-3M 40.7 µM | MDA-N > 100 µM

CC(=O)Oc1ccc2c(c1)O/C(=C\c1ccc(O)cc1)C2=O
inactive: IGROV-1 > 100 µM | SF-539 > 100 µM | RPMI-8226 > 100 µM | TK-10 > 100 µM | SK-MEL-5 > 100 µM | SNB-19 > 100 µM | UACC-62 > 100 µM | U-251 > 100 µM | SK-MEL-28 > 100 µM | T47D > 100 µM | HL-60 > 100 µM | OVCAR-4 > 100 µM | K562 > 100 µM | KM12 > 100 µM | SNB-75 > 100 µM | MDA-N > 100 µM

N#CC(c1cc2c(cc1Br)OCO2)N1CCOCC1 (stereo not drawn)
inactive: IGROV-1 58.1 µM | SF-539 29.7 µM | HT-29 42.5 µM | RPMI-8226 20.3 µM | TK-10 90.8 µM | SK-MEL-5 26.1 µM | SNB-19 61.9 µM | UACC-62 21.1 µM | SK-MEL-28 > 100 µM | T47D > 100 µM | HL-60 3.33 µM | OVCAR-4 > 100 µM | K562 3.32 µM | OVCAR-5 > 100 µM | KM12 67.6 µM | Malme-3M 78.9 µM | SNB-75 30.1 µM | MDA-N 18.2 µM

COC(=O)C1CC2(CCC1=O)Cc1ccccc1C2=O (stereo not drawn)
inactive: IGROV-1 > 100 µM | SF-539 > 100 µM | HT-29 > 100 µM | RPMI-8226 65.5 µM | TK-10 > 100 µM | SK-MEL-5 > 100 µM | SNB-19 > 100 µM | UACC-62 > 100 µM | U-251 > 100 µM | SK-MEL-28 > 100 µM | T47D > 100 µM | HL-60 > 100 µM | OVCAR-4 > 100 µM | K562 42.3 µM | OVCAR-5 > 100 µM | KM12 > 100 µM | Malme-3M > 100 µM | SNB-75 > 100 µM | MDA-N > 100 µM
